Like-named read-outs stand apart in the source and are kept apart here.
Assays:
[1] = target: T1, Rat EP4 (Rattus norvegicus, UniProt P43114); test: EP4 cAMP antagonist assay (HTRF), rat EP4; assay type: cell-based; conditions: read-out: cAMP Antagonism Rat EP4 IC50
T1 construct: expressed in transfected cells
Method: Human EP4 (GenBank Accession # AY429109, Clone ID PER0400000, UMR cDNA Resource Center, Rolla, MO) was stably expressed in HEK293 cells. Rat EP4 cDNA (GenBank Accession# NM_03276) was cloned into pcDNA 3.1 vector and stably transfected into HEK293 cells. The cell lines were maintained in DMEM (invitrogen) supplemented with 10% fetal bovine serum (FBS), 1 mmol/L sodium pyruvate, 10 mmol/L HEPES, 500 μg/mL geneticin and 2 mmol/L L‐glutamine. Confluent cultures were grown at 37°C in an atmosphere containing 5% CO2. Cells were harvested using 0.25% Trypsin‐ EDTA, suspended in freeze media at a density of 10^7cel1s/mL, and aliquots were stored in liquid nitrogen. Immediately prior to the assay, cells were thawed with DMEM and suspended in cAMP assay buffer (HBSS with 0.1% BSA, 20 mmol/L HEPES and 200 μmol/L IBMX).
CJ‐023,423 served as the positive control. To measure the cAMP levels, cAMP‐d2 conjugate and anti cAMP‐cryptate conjugate in lysis buffer were incubated with the treated cells at room temperature for 1 h. The HTRF signal was detected using an EnVision plate reader (Perkin‐Elmer, Inc., Waltham, MA, USA.) to calculate the ratio of fluorescence at 665 to 620 nm. The raw data were converted to cAMP (nmol/L) using a cAMP standard curve generated for each experiment. Data were analyzed using a 4‐parameter nonlinear logistic equation. Results are expressed as the geometric mean ± standard deviation or geometric mean ± standard error as noted.

[2] = target: T2, human EP2 receptor (Homo sapiens, UniProt P43116); test: [3H]-PGE2 receptor binding assay, EP2 membranes
T2 construct: host or cells: HEK293, transient; membrane preparation
Method: (§1) Receptor binding assays were done using membrane preparations of HEK 293 cells transfected with various prostanoid receptors using previously published procedure (Nakao et al. 2007). EP1 and EP4 membranes were prepared from recombinant HEK293 cells stably expressing human EPl receptor (GenBank Accession # AY275470, Clone ID PER0100000, UMR cDNA Resource Center, Rolla, MO) or human EP4 receptor. EP2 and EP3 membranes were prepared from HEK293 cells transiently transfected with human EP2 receptor (GenBank Accession # AY275471, Clone ID PER0200000, UMR cDNA Resource Center, Rolla, MO) or human EP3 receptor (GenBank Accession # AY429108, Clone ID PER3VI0000, UMR cDNA Resource Center, Rolla, MO) plasmids. Frozen cell pellets were homogenized in homogenization buffer (10 mmol/L Tris‐HCl, pH7.4, 250 mmol/L sucrose, 1 mmol/L EDTA, 0.3 mmol/L indomethacin and protease inhibitor cocktail with EDTA (Roche Molecular Biochemicals, catalog # 1691498)) using a Teflon/glass homogenizer. After a low speed centrifugation (200g for 15 min at 4°C) the supernatant was subjected to high speed centrifugation (30,000g for 60 min at 4°C). Membrane protein preparation was aliquoted and quick frozen on dry ice prior to storage at −80°C. […] Compounds were tested in a 96‐well format using a three‐fold dilution series to generate 10‐point curves. […] The binding reaction was performed in 200 μL MES buffer (10 mmol/L MES, pH 6.0, 10 mmol/L MgCl2, and l mmol/L EDTA) using polystyrene 96‐well plates. […] The membranes were harvested by filtration (TomTek harvester), washed four times with cold buffer (10 mmol/L MES, pH 6.0, 10 mmol/L MgCl2), dried in a 60°C oven, and the radioactivity was quantified as counts per min (CPM) using a TopCount detector. […] Data were analyzed using a 4‐parameter nonlinear logistic equation. K i Conversion from IC50 Values (K i = […] where [L] is the ligand concentration). Results are expressed as the geometric mean ± standard deviation or geometric mean ± standard error as noted.

[3] = target: T3, human EP3 receptor (Homo sapiens, UniProt P43115); test: [3H]-PGE2 receptor binding assay, EP3 membranes; conditions: HEK293 membranes, geometric mean ± SEM, read-out: hEP1-4 receptor binding EP3 Ki
T3 sequence (P43115 1-359 limits assumed): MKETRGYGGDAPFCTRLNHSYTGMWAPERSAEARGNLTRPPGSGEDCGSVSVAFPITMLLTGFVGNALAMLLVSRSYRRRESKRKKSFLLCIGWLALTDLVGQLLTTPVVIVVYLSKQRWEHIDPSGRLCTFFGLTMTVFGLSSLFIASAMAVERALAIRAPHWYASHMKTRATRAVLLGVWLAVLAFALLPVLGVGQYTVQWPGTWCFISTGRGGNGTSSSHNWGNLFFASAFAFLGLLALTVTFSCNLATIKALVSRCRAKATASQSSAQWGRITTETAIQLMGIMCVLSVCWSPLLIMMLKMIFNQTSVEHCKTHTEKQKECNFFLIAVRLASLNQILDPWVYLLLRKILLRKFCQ
Method: as §1

[4] = system: PGE2 Inhibited TNFα in human whole blood; test: Human whole blood assay (Reversal of PGE2 Inhibited TNFα); assay type: cell-based; conditions: for times more potent than reference EP4 antagonists (whole blood assay): PGE2 mediated TNF-α
Method: Blood was collected from normal volunteer donors into sodium heparin vacutainer tubes. Donors had not taken glucocorticoids within 2 weeks of the donation. […] The plates were incubated for 20–24 h at 37 °C, 5% CO2, in a humidified atmosphere. […] Plasma was removed from the cell layer and was transferred to v‐bottom polypropylene plates. […] The plates were read at A450‐A650 on a plate reader (Molecular Devices Versamax) using SOFTmaxPRO (v. 4.3.I) software. IC50s were calculated using Graphpad Prism (v. 4) nonlinear regression, sigmoidal dose response curve fitting. Results are expressed as the geometric mean ± SD.

[5] = target: Human EP4 (Homo sapiens, UniProt P35408); test: [3H]-PGE2 receptor binding assay, EP4 membranes; parameters: expressed in transfected cells; membrane preparation; conditions: HEK293 membranes, geometric mean ± SEM, read-out: hEP1-4 receptor binding EP4 Ki
Method: as §1

[6] = HEK293 membranes, [3H]-PGE2, geometric mean ± SEM, read-out: hEP1-4 receptor binding EP2 Ki

Chain of Human EP4 (P35408 whole entry): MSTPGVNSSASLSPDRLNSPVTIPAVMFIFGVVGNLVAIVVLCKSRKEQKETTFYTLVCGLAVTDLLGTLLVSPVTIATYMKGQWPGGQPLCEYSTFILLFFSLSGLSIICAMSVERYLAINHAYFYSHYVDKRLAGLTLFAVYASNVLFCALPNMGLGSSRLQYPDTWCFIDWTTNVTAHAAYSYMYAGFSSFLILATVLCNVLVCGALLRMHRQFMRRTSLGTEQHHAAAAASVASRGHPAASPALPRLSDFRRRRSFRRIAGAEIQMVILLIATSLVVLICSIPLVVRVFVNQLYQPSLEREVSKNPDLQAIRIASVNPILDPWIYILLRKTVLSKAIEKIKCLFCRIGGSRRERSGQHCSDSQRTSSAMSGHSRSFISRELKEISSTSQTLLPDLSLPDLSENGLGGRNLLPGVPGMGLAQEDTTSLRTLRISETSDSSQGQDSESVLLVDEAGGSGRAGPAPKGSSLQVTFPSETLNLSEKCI
T2 sequence (P43116 whole entry): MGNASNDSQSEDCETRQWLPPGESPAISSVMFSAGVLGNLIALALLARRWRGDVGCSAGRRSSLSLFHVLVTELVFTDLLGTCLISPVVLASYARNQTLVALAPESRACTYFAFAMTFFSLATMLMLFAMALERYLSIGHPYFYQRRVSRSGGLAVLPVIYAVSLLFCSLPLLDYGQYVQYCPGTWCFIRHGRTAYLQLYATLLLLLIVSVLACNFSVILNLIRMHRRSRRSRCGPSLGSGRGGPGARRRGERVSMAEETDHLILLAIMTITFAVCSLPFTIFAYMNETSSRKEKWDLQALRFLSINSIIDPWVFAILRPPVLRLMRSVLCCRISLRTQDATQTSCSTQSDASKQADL
T1 sequence (P43114 whole entry): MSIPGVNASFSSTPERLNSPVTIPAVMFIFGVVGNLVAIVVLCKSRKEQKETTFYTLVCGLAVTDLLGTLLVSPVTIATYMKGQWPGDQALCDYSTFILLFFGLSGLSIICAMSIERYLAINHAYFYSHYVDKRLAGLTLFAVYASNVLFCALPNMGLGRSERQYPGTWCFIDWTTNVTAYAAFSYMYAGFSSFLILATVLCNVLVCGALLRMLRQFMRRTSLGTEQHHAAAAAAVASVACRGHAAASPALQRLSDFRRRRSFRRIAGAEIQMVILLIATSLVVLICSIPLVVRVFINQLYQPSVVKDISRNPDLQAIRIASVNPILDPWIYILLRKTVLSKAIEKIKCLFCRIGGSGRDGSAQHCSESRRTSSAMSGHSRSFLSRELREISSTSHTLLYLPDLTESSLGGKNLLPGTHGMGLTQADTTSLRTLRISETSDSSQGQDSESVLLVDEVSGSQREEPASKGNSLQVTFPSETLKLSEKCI

SMILES | IC50 [1] [nM] | Ki [2, 6] [nM] | Ki [3] [nM] | reversal of PGE2 suppression of LPS stimulated TNF‐α production ([4]; human whole blood, various concentrations (Fig. 5A)) | Ki [5] [nM] | times more potent than reference EP4 antagonists (whole blood assay) ([4]; human whole blood) | IC50 ([4]; read-out: Human whole blood (Reversal of PGE2 Inhibited TNFα) IC50, 10 μg/ml LPS + 10 nmol/L PGE2, 20–24 h, geometric mean ± SD) [nM] | Ki ([2]; read-out: Ki for EP2 receptor) [nM]
C[C@H](NC(=O)c1cc(Cl)ccc1Oc1ccc(F)cc1)c1ccc(C(=O)O)cc1 [CJ‐042,794, reference compound] | 20.6 ± 1.8 | 931 ± 457 | > 15500 | reversed | 12.6 ± 7.36 | – | – | –
Cc1ccc(N2CCC(O)CC2)nc1C(=O)Nc1c(C)cc(C(=O)O)cc1C [Compound 1] | 12.3 | – | – | – | 58 ± 12 | 5–10 times | 123 ± 80 | –
C[C@H](NC(=O)[C@H]1CCCCN1CCOc1ccccc1)c1ccc(C(=O)O)cc1 [Compound 2] | 15.4 | 1210 ± 509 | > 14000 | – | – | 5–10 times | – | 1200
Cc1ccc(-c2cccc(CO)c2)nc1C(=O)Nc1c(C)ccc(C(=O)O)c1C [Compound 3] | 1 | > 18900 | > 14000 | – | 2.07 ± 1.31 | – | – | –

From paper PMC5464344, “Analgesic and anti‐inflammatory properties of novel, selective, and potent EP4 receptor antagonists” (Pharmacology Research & Perspectives, 2017)
